Measured values as given in ChEMBL document CHEMBL1145419, “Structural insight into the pharmacophore pocket of human glutamate carboxypeptidase II” (J Med Chem, 2007).

Target: Glutamate carboxypeptidase 2 (Homo sapiens, UniProt Q04609)
Sequence (Q04609 whole entry): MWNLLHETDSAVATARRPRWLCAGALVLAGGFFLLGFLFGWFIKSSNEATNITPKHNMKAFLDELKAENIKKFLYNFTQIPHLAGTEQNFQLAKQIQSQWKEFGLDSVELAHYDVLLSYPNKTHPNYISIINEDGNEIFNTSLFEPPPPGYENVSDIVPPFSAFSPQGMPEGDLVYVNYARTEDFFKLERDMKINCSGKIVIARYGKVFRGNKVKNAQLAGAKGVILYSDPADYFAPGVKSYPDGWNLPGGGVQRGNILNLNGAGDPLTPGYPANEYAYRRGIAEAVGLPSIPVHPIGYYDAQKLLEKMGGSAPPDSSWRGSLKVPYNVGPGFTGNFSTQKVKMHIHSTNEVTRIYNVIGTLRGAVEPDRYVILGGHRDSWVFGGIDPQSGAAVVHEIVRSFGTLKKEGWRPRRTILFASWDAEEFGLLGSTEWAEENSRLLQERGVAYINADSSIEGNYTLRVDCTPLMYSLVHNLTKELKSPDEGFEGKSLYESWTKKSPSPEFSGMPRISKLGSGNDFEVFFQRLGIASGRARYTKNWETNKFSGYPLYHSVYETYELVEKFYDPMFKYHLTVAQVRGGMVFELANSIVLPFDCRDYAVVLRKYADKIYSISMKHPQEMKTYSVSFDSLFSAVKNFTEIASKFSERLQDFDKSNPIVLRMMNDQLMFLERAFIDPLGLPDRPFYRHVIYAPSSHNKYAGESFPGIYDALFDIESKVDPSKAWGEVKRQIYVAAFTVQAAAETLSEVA
Description: Inhibition of human recombinant glutamate carboxypeptidase 2 by radioenzymatic assay

**Q.** `N[C@@H](Cn1ccc(=O)[nH]c1=O)C(=O)O` [(S)-WILLARDIINE] was tested. Which IC50 did it give?
**A.** 67 µM

**Q.** Which IC50 does the source give for `N[C@@H](COP(=O)(O)O)C(=O)O` [DEXFOSFOSERINE] here?
**A.** 523 µM

**Q.** How did the IC50 turn out when `N[C@@H](CCC(=O)O)C(=O)O` [GLUTAMIC ACID] was run?
**A.** 428 µM

**Q.** For `N[C@@H](Cn1oc(=O)[nH]c1=O)C(=O)O` [QUISQUALATE], which IC50 is on record?
**A.** 9.5 µM
